pIC50: −log10 of the molar value.
Tests used:
[1] = target: T1, protein-farnesyl transferase (PFT) (Rattus norvegicus, UniProt Q02293+Q04631); assay: Inhibitory activities against protein-farnesyl transferase (PFT); assay type: biochemical; conditions: PFT derived from rat brain; prenyl acceptor H-ras protein or biotin-added Lys-Thr-Ser-Cys-Val-Ile-Met; 37° C., 20 minutes; read-out: 50% inhibitory concentrations (IC50) against PFT activities
T1 construct: PFT derived from rat brain (Q-sepharose fraction); from tissue; host or cells: rat brain (soluble fraction, 30-50% ammonium sulfate cut, Q-Sepharose fraction)
Procedure: Pharmacological Test 1 (Inhibitory activities against protein-farnesyl transferase)
PFT was separated in such a manner that a soluble fraction of rat s brain was fractionated by means of 30%-50% saturated ammonium sulfate, further dialyzed and then subjected to column chromatography by Q-sepharose™ (manufactured by Pharmacia) (Reiss et al., Cell, vol. 62, pp. 81-88 (1990)).
(2) Method for measuring PFT activities
Measurement of PFT activities was conducted by using, as a prenyl acceptor, H-ras protein or a peptide corresponding to the C-terminal 7 amino acid residues of K-rasB protein which had biotin added to the N-terminal (biotin-added Lys-Thr-Ser-Cys-Val-Ile-Met) and, as a prenyl donor, [^3 H]-labeled farnesyl pyrophosphate (FPP) (Reiss et al., Methods: A Companion to Methods in Enzymology, vol. 1, No. 3, pp. 241-245 (1990)). […]
The enzymatic reaction product containing H-ras protein as the prenyl acceptor, was analyzed by SDS-PAGE (sodium dodecyl sulfate/polyacrylamide gel electrophoresis). […]
The measurement of PFT activities using H-ras protein as the prenyl receptor, was also analyzed by a rapid separate method. […]

[2] = system: farnesyl-modification of Ras protein in NIH3T3 cells transformed by activated ras gene; assay: Inhibitory activities against farnesyl-modification of Ras protein in NIH3T3 cells transformed by activated ras gene; assay type: cell-based; conditions: Mus musculus, 24 hours, read-out: 50% inhibitory concentrations (IC50) against farnesyl-modification of Ras protein
Procedure: PHARMACOLOGICAL TEST EXAMPLE 2 (Inhibitory activities against farnesyl-modification of Ras protein)
Using the compounds of the present invention, inhibitory activities against farnesyl-modification of Ras protein in NIH3T3 cells transformed by activated ras gene, were measured.
The NIH3T3 cells transformed by activated ras gene, were seeded on a culture plate and cultured for 3 days. Then, a compound of the present invention in a predetermined concentration was added to the culture. In accordance with the method disclosed in J. Biol. Chem., vol. 268, p. 18415 (1993), the cells were cultured for 24 hours and then taken off from the plate, and the cells were dissolved. After centrifugal separation for 5 minutes under 12000 g, the supernatant was used as a cell extract. The cell extract was subjected to SDS polyacrylamide gel electrophoresis to separate farnesyl-modified Ras protein and non-farnesyl-modified Ras protein. The protein on the gel was transferred onto a nitrocellulose membrane, and an anti-Ras protein antibody was reacted as a probe (primary antibody reaction). An anti-primary antibody, a peroxidase inclusion (secondary antibody), was reacted, and then Ras protein was detected by a chemical fluorescence enhancing kit. The proportion of non-farnesyl-modified Ras protein was quantified by a densitometer and taken as the inhibitory activity. […]

SMILES	pIC50 [1]	pIC50 [2]
CCOC(=O)C(CC(=O)O)=C(O)C(=O)N(CC#Cc1ccccc1)[C@H](C)[C@H](Cc1ccc(C(=O)Nc2ccccc2)o1)c1ccc2c(c1)OCO2 (relative stereo) [Example 17, 3-(ethoxycarbonyl)-4-hydroxy-4-[N [(1RS,2RS)-1-methyl-2-(3,4-methylenedioxyphenyl)-3-{5-(phenylcarbamoyl)-2-furyl}propyl]-N-(3-phenyl-2-propynyl)carbamoyl]-3-butenoic acid]	8.77	8.37
C[C@H]([C@H](Cc1ccc(C(=O)Nc2ccccc2)o1)c1ccc2c(c1)OCO2)N(C/C=C/c1ccccc1)C(=O)C(O)=C(CC(=O)O)C(=O)OC(C)(C)C [Example 1, 3-(tert-butoxycarbonyl)-4-hydroxy-4-[N-[(1R,2R)-1-methyl-2-(3,4-methylenedioxyphenyl)-3-{5-(phenylcarbamoyl)-2-furyl}propyl]-N-{(E)-3-phenyl-2-propenyl}carbamoyl]-3-butenoic acid]	9.13	8.89
